From patent publication US6441049B2, “Method of treating neurodegenerative disorders via inhibition of amyloid beta peptide binding” (Ortho-McNeil Pharmaceutical, Inc., priority 1998, dated 2002)
pIC50: −log10 of the molar value. Where two headings read alike, the source gives them in different places. Bridge positions count the residues as written; N and C are the ends.

How the values were obtained:
[1] = target: 206-216 stretch of the human α7 nAChR (Homo sapiens, UniProt P36544); details: inhibitors 1 uM to 10 uM
[2] = test system: acetylcholine release from guinea pig hippocampus synaptosomes; test: K+-evoked 3H-acetylcholine release from synaptosomes, effect of Aβs; assay type: cell-based; details: for pIC50: read-out: ACh Release (IC50)
Procedure: Synaptosomes from guinea pig hippocampus were incubated with 0.1 μM ^3H-choline and then subjected to repeated washes to remove unincorporated ^3H-choline. The synaptosomes were treated with 65 mM K^+ for 30 seconds to elicit 3H-acetylcholine release.

[3] = target: T1, Aβ aggregation (Homo sapiens, UniProt P05067); test: Aβ aggregation assay on Synthaloid plates with labelled Aβ1-40; assay type: biochemical
T1 construct: 100 nM of fluo-Aβ1-40 in 100 μl of each well of the 96-well Synthaloid plate; purchased Amersham Pharmacia Biotech (125I-Aβ1-40); Advanced Bioconcepts (fluo-Aβ1-40)
T1 sequence (P05067 672-711 limits assumed): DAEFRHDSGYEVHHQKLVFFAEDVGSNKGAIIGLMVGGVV
Procedure: Aβs are known to form aggregates leading to the formation of amyloid plaques that are characteristic of Alzheimer's disease. […] We have validated this aggregation assay using both ^125I-Aβ1-40 and fluo-Aβ1-40 in a buffer containing 50 mM HEPES, pH 7.4, 0.1% BSA, 10% FCS and protease inhibitors. About 500 pM of ^125I-Aβ1-40 or 100 nM of fluo-Aβ1-40 in 100 μl of each well of the 96-well Synthaloid plate was allowed to incubate for 2.5 hr at room temperature in the presence or absence of inhibitors. At the end of the incubation, unbound protein in the wells was removed by three washes using the above buffer. The amount of bound protein which represented Aβ aggregation was measured either by scintillation counting or fluorescence measurements.

[4] = test system: Aβ1-42 mediated inhibition of ACh release in rat cortical synaptosomes; test: Amelioration of the Aβ1-42 mediated inhibition of ACh release in rat cortical synaptosomes; assay type: cell-based
[5] = 10 μM, read-out: % Inh Agg. (conc μM)

% Inh Agg. (conc μM) ([3]; 10 μM) | % α7 nAChR 206-216 Binding ([1]; 125I-β-amyloid1-40 50 pM) [%] | Compound | % ACh Release at 10 μM [2] [%] | further results
– | – | CCCN(CCCc1ccccc1)C1Cc2c(OC)ccc(OC)c2CC1C (racemic) [Compound 19] | – | % Inh Agg. (conc μM) ([3]; 5 μM): 30 (5) %
– | – | CCCN(CCCc1ccccc1)C1Cc2c(O)ccc(O)c2CC1C (racemic) [Compound 20] | – | % Inh Agg. (conc μM) ([3]; 5 μM): 39 (5) %
– | – | CCCN(CC1CCCCC1)C1Cc2c(OC)ccc(OC)c2CC1C (racemic) [Compound 21] | – | % Inh Agg. (conc μM) ([3]; 5 μM): 20 (5) %
– | – | CCCN(CC1CCCCC1)C1Cc2c(O)ccc(O)c2CC1C (racemic) [Compound 22] | – | % Inh Agg. (conc μM) ([3]; 50 μM): 38 (50) %
– | 48 | CCCN(Cc1ccccc1)C1Cc2c(OC)ccc(OC)c2CC1C (racemic) [Compound 25] | – | –
<30 (10) % | 64 | CCCN(Cc1ccccc1)C1Cc2c(O)ccc(O)c2CC1C (racemic) [Compound 26] | – | –
50-90 (10) % | 34 | CCCN(CCCSC)C1Cc2c(O)ccc(O)c2CC1C (racemic) [Compound 28] | – | –
12 (10) % | – | CCCN(Cc1cccs1)C1Cc2c(OC)ccc(OC)c2CC1C (racemic) [Compound 29] | – | –
– | – | CCCN(Cc1cccs1)C1Cc2c(O)ccc(O)c2CC1C (racemic) [Compound 30] | – | % Inh Agg. (conc μM) ([3]; 5 μM): 38 (5) %
38 (10) % | – | CCCN(Cc1ccc(I)cc1)C1Cc2c(OC)ccc(OC)c2CC1C (racemic) [Compound 35] | – | –
<30 (10) % | – | CCCN(Cc1ccc(I)cc1)C1Cc2c(O)ccc(O)c2CC1C (racemic) [Compound 36] | – | –
<30 (10) % | – | CCCCOc1ccc(CN(CCC)C2Cc3c(OC)ccc(OC)c3CC2C)cc1 (racemic) [Compound 37] | – | –
<30 (10) % | – | CCCN(Cc1ccc(O)cc1)C1Cc2c(O)ccc(O)c2CC1C (racemic) [Compound 38] | – | –
85 (10) % | – | CCCN(Cc1ccccc1Cl)C1Cc2c(OC)ccc(OC)c2CC1C (racemic) [Compound 39] | – | –
75 (10) % | – | CCCN(Cc1ccccc1Cl)C1Cc2c(O)ccc(O)c2CC1C (racemic) [Compound 40] | – | –
<30(10) % | 19 | CCCN(Cc1ccc(C)cc1)C1Cc2c(OC)ccc(OC)c2CC1C (racemic) [Compound 41] | 14 | –
60 (10) % | – | CCCN(Cc1ccc(C)cc1)C1Cc2c(O)ccc(O)c2CC1C (racemic) [Compound 42] | – | –
– | 54 | COc1ccc(OC)c2c1C[C@@H](N1CCOCC1)[C@@H](C)C2 (relative stereo) [Compound 23, 5,8-Dimethoxy-cis-2-(1-morpholinyl)-3-methyl-1,2,3,4-tetrahydronaphthalene] | – | –

% Inh Agg. (conc μM) ([3]; 10 μM) | % α7 nAChR 206-216 Binding ([1]; 125I-β-amyloid1-40 50 pM) [%] | Compound | % ACh Release at 10 μM [2] [%] | further results
– | 0 | COc1ccc(OC)c2c1C[C@H](C)[C@H](Nc1ccc(OCCN3CCCCC3)cc1)C2 (relative stereo) [Compound 60, 5,8-Dimethoxy-cis-2-[N-(4-(2-(1-piperidinyl)ethoxy)phenyl)]amino-3-methyl-1,2,3,4-tetrahydronaphthalene] | 24 | % Inh Agg. (result in words) ([3]; concentration not given): very active
– | – | CCCNC1Cc2c(OC)ccc(OC)c2CC1C (centres unmarked) [Compound 7, 5,8-Dimethoxy-2-N-propylamino-3-methyl-1,2,3,4-tetrahydronaphthalene] | – | inhibition at 100 µM ([3]; 100 μM, read-out: % Inh Agg. (conc μM)): 50%
– | – | CCCN(CCC)C1Cc2c(OC)ccc(OC)c2CC1C (stereo not drawn) [Compound 8, 5,8-Dimethoxy-trans-2-di(N-propylamino)-3-methyl-1,2,3,4-tetrahydronaphthalene] | – | pIC50 ([2]; Cavia porcellus): 6.15; inhibition at 10 µM [3, 5]: 50 to 90%
– | – | CCCN(CCC)C1Cc2c(O)ccc(O)c2CC1C (centres unmarked) [Compound 15] | – | % α7 nAChR 206-216 Binding ([1]; […]): 85%; pIC50 [2]: 6.60; inhibition at 10 µM [3, 5]: 50 to 90%
– | 43 | CC1Cc2c(O)ccc(O)c2CC1N1CCOCC1 (stereo not drawn) [Compound 24, 5,8-Dihydroxy-cis-2-(1-morpholinyl)-3-methyl-1,2,3,4-tetrahydronaphthalene] | – | –
– | – | CCCN(CCC)C1Cc2c(OC)ccc(O)c2CC1C (stereo not drawn) [Compound 45, 5-Hydroxy-8-methoxy-trans-2-di(N-propylamino)-3-methyl-1,2,3,4-tetrahydronaphthalene] | 78 | inhibition at 78 µM ([3]; 78 μM as printed, read-out: % Inh Agg. (conc μM)): 30 to 50%
– | – | CCCN(CCC)C1Cc2c(O)ccc(OC)c2CC1C (stereo not drawn) [Compound 46, 5-Methoxy-8-hydroxy-trans-2-di(N-propylamino)-3-methyl-1,2,3,4-tetrahydronaphthalene] | 0 | % α7 nAChR 206-216 Binding ([1]; […]): 18%; inhibition at 10 µM [3, 5]: 50 to 90%
<30 (10) % | 2 | COC(=O)[C@H](C)NC1Cc2c(OC)ccc(OC)c2CC1C (stereo partly drawn) [Compound 48, 5,8-Dimethoxy-2-[N-(L-alanylmethyl ester)]-3-methyl-1,2,3,4-tetrahydronaphthalene] | 0 | –
– | – | CCCN(C)C1Cc2c(OC)ccc(OC)c2CC1C (centres unmarked) [Compound 52] | 0 | % α7 nAChR 206-216 Binding ([1]; […]): 0%; inhibition at 10 µM [3, 5]: 60%
– | – | CCCN(C)C1Cc2c(O)ccc(O)c2CC1C (centres unmarked) [Compound 53] | 18 | % α7 nAChR 206-216 Binding ([1]; […]): 0%; inhibition at 10 µM [3, 5]: 50 to 90%
50-90 (10) % | 0 | CCCN(CCC(C)CCC=C(C)C)C1Cc2c(OC)ccc(OC)c2CC1C (centres unmarked) [Compound 54] | 0 | –
50-90 (10) % | 0 | CCCN(CCC(C)CCC=C(C)C)C1Cc2c(O)ccc(O)c2CC1C (centres unmarked) [Compound 55] | 15 | –
<30 (10) % | 78 | C#CCN(CCC)C1Cc2c(O)ccc(OP(=O)(c3ccccc3)c3ccccc3)c2CC1C (centres unmarked) [Compound 56] | 8 | –
<30 (10) % | 63 | C#CCN(CCC)C1Cc2c(OP(=O)(c3ccccc3)c3ccccc3)ccc(OP(=O)(c3ccccc3)c3ccccc3)c2CC1C (centres unmarked) [Compound 57] | 11 | –
<30 (10) % | 42 | CCCN(CCC)C1Cc2c(O)ccc(OP(=O)(c3ccccc3)c3ccccc3)c2CC1C (centres unmarked) [Compound 58] | 18 | –
– | – | Ac-GIPGKRSERFYECCK-NH2 (cysteine pairing not given here) [human alpha-7 nAChR200-214, peptide stretch of the human alpha-7 nAChR] | – | Amelioration of the Aβ1-42 Meditated Inhibition of ACh Release in Rat Cortical Synaptosomes (%) ([4]; at 1 μM): 71% at 1 μM; Amelioration of the Aβ1-42 Meditated Inhibition of ACh Release in Rat Cortical Synaptosomes (%) ([4]; at 10 μM): 79% at 10 μM
– | – | Ac-SERFYECCKEP-NH2 [human alpha-7 nAChR206-216 oxidized (cyclic) CC: Ac-SERFYECC] (disulfide 7-8 (inferred)) [206-216 peptide with oxidized (cyclic) CC] | – | Amelioration of the Aβ1-42 Meditated Inhibition of ACh Release in Rat Cortical Synaptosomes (%) ([4]; at 1 μM): 82% at 1 μM; Amelioration of the Aβ1-42 Meditated Inhibition of ACh Release in Rat Cortical Synaptosomes (%) ([4]; at 10 μM): 84% at 10 μM

Compound | % Inh Agg. (conc μM) ([3]; 10 μM) | % α7 nAChR 206-216 Binding ([1]; 125I-β-amyloid1-40 50 pM) [%] | % ACh Release at 10 μM [2] [%] | further results
5,8-bis(Diphenylphosphinoyl)-3-methyl-1,2,3,4-tetrahydronaphthalene [Compound 59] | <30 (10) % | – | 25 | % α7 nAChR 206-216 Binding ([1]; […]): 72%
C#CCN(CCC)C1Cc2c(OC)ccc(OC)c2CC1C (racemic) [Compound 31, 5,8-Dimethoxy-cis and trans-2-(N-propyl-N-propargyl)amino-3-methyl-1,2,3,4-tetrahydronaphthalene] | 34 (10) % | – | – | –
C#CCN(CCC)C1Cc2c(O)ccc(O)c2CC1C (racemic) [Compound 32] | 69 (10) % | – | – | –
C#CCN(CCC)C1Cc2c(O)ccc(O)c2CC1C (racemic) [Compound 34] | 69 (10) % | – | – | –
CCCN(CCC)C1Cc2c(O)ccc(OCC=C(C)C)c2CC1C (racemic) [Compound 43] | 50-90 (10) % | 10 | 0 | –
CCCN(CCC)C1Cc2c(OCC=C(C)C)ccc(O)c2CC1C (racemic) [Compound 44] | 50-90 (10) % | 23 | 0 | –
CCCN(CCC)C1Cc2c(OC)ccc(OC)c2CC1C (single isomer, unassigned) [Compound 17] | >90 (10) % | – | 63 | pIC50 [2]: 6.00
CCCN(CCC)C1Cc2c(OC)ccc(OC)c2CC1C (single isomer, unassigned) [Compound 18] | 50-90 (10) % | – | 70 | pIC50 [2]: 5.00
CCCN(CCC)C1Cc2c(O)ccc(O)c2CC1C (centres unmarked) [Compound 16] | 50-90 (10) % | – | – | % α7 nAChR 206-216 Binding ([1]; […]): 44%; pIC50 [2]: 5.00
CCCN(CCC)C1Cc2c(OC(=O)C(C)(C)C)ccc(O)c2CC1C (centres unmarked) [Compound 51] | 30-50 (10) % | 0 | 54 | –
